# Laboratory results: patent US20260176285A1, “SALT OF DIOXANE QUINOLINE COMPOUND, CRYSTAL FORM THEREOF, PREPARATION METHODS THEREFOR AND USES THEREOF” (Beijing Scitech-MQ Pharmaceuticals Limited, priority 2022, published 2026)
# Legend:
# [1] = Hygroscopicity by dynamic moisture sorption (DVS); format: physicochemical; conditions: for Moisture adsorption (25° C./80% RH) / Hygroscopicity: DVS
# Experimental: Dynamic moisture sorption (DVS): The curves were collected on a DVS Intrinsic of SMS (Surface Measurement Systems). At 25° C., the humidity range was 0% RH-95% RH, the step was 10% (the last step was 5%), and the dm/dt was 0.002%/min.
# The hygroscopicity of the free compound of formula (I), mucate salt crystal form A-I, p-toluenesulfonate salt crystal forms A-II and B-III, di-p-toluenesulfonate salt crystal form A-IV and phosphate salt crystal form A-V was evaluated by dynamic moisture sorption instrument (DVS). Starting from 0% relative humidity (0% RH), the test collected the mass change percentage of the samples under constant temperature of 25° C. with humidity changes (0% RH-95% RH-0% RH).
# [2] = Equilibrium solubility in water; format: physicochemical; conditions: H2O, room temperature, 24 hours; listed as p-Toluenesulfonate salt crystal form B-III
# Experimental: The sample was centrifuged and filtered, and the filtrate was tested by HPLC.
# [3] = Solid-state stability evaluation (XRPD, HPLC); format: physicochemical
# Experimental: The following 6 test samples were placed under 25° C./60% RH and 40° C./75% RH conditions for 1 week, and then the physical and chemical stability of the samples was tested by XRPD and HPLC.
# At the same time, after the p-toluenesulfonate salt crystal form A-II and crystal form B-III solids were placed at 80° C. for 24 hours, the physical and chemical stability of the samples were tested by XRPD and HPLC.
# [4] = system: human lung cancer cells EBC-1; experiment: Efficacy in nude mouse tumor-bearing model of human lung cancer cells EBC-1; format: in vivo, Balb/c nude mouse
# Source text: In this assay, the free compound of formula (I) of the present application and different salts of the compound prepared in Examples 1, 2 and 5 were orally administered to a nude mouse tumor-bearing model of human lung cancer cells EBC-1 to study their effects on tumor growth.
# Preparation of test compounds: an appropriate weight of the test compound (including the free form of the compound of formula (I) and different salts of the compound prepared in Examples 1, 2 and 5) was weighed, completely suspended/dissolved in an appropriate volume of 0.1% sodium carboxymethyl cellulose, stirred and vortexed to give a uniform solution or suspension.
# Methods: All assays were authorized by the Animal Welfare Committee. EBC-1 in the logarithmic growth phase was inoculated into immune-deficient nude mice (BALB/c nude, female, 6-8 weeks old, weighing 18±2 g), subcutaneously on the right back, with a cell inoculation amount of 5×10^6/mouse. After the tumor grew to 150-200 mm^3, the animals were randomly divided into groups, 6 mice per group. The dose of each test substance was set at 15 mg/kg and 7.5 mg/kg (both based on the concentration of the effective formula (I) compound), and administered once a day for about 3 weeks. The test compounds were freshly prepared each day before use. During the assay, the tumor diameter was measured twice a week, and the mice were weighed at the same time. The calculation formula of tumor volume (TV) is: TV=1/2×a×b^2, where a and b represent length and width, respectively. The relative tumor volume (RTV) was calculated based on the measurement results, and the calculation formula is: RTV=Vt/V0, wherein V0 is the tumor volume measured at the time of cage grouping and dosing initiation (i.e., d0), and Vt is the tumor volume at each measurement. The evaluation index of antitumor activity is the relative tumor proliferation rate T/C (%), calculated as follows: T/C (%)=(TRTV/CRTV)×100%, TRTV: RTV of the treatment group; CRTV: RTV of the negative control group. T and C represent the average tumor volume at a certain time point in the drug administration group and the control group, respectively.
# [5] = Dynamic solubility in water, SGF, FaSSIF and FeSSIF; format: physicochemical; conditions: for solubility at 1 h / solubility at 2 h / solubility at 4 h / solubility at 24 h: 37 °C, thermodynamic from solid
# Experimental: Biological solvent Preparation • 1. […] 67.5 μL of concentrated hydrochloric acid (12 M) was added and the mixture was adjusted to a pH value of 1.8 with 1 M hydrochloric acid or 1 M NaOH solution. Purified water was added to make up to volume. • 2. Preparation of Fasted State Simulated Intestinal Fluid (FaSSIF): 0.17 g of anhydrous NaH2PO4, 0.021 g of NaOH, and 0.31 g of NaCl were weighed into a 50-mL volumetric flask. About 48 mL of purified water was added to dissolve the mixture completely, and the solution was adjusted to a pH value of 6.5 with 1 M hydrochloric acid or 1 M NaOH solution. Purified water was added to make up to volume. 0.11 g of SIF powder was added and dissolved completely. • 3. Preparation of Fed State Simulated Intestinal Fluid (FeSSIF): 0.41 mL of glacial acetic acid, 0.20 g of NaOH and 0.59 g of NaCl were weighed into a 50-mL volumetric flask. About 48 mL of purified water was added to dissolve the mixture completely, and the solution was adjusted to a pH value of 5.0 with 1 M hydrochloric acid or 1 M NaOH solution. Purified water was added to make up to volume. 0.56 g of SIF powder was added and dissolved completely.
# The dynamic solubility of the free state, the mucate salt crystal form A-I, the p-toluenesulfonate salt crystal form A-II, the di-p-toluenesulfonate salt crystal form A-IV and the phosphate salt crystal form A-V of the compound of formula (I) in water and three biological solvents was evaluated.
# The samples at each time point were centrifuged and filtered (0.45 μm PTFE filter head), and the HPLC concentration and pH value of the filtrate were determined.
# [6] = 40° C./75% RH, 1 week, listed as p-Toluenesulfonate salt crystal form B-III
# [7] = 80° C., 24 hours, listed as p-Toluenesulfonate salt crystal form B-III
# [8] = pH 1.8, simulated gastric fluid
compound,measurement,setting,value
"O=C(Nc1ccc(F)cc1)C1(C(=O)Nc2ccc(Oc3ccnc4cc(OCCCN5CCOCC5)c5c(c34)OCCO5)c(F)c2)CC1 [Example 3, N-(3-fluoro-4-((5-(3-morpholinopropoxy)-2,3-dihydro-[1,4]dioxano[2,3-f]quinolin-10-yl)oxy)phenyl)-N-(4-fluorophenyl)cyclopropane-1,1-dicarboxamide]",Moisture adsorption (25° C./80% RH),[1]; listed as p-Toluenesulfonate salt crystal form B-III,3.13%
same,Hygroscopicity,"[1]; 25° C., listed as p-Toluenesulfonate salt crystal form B-III",Hygroscopic
same,Solubility (equilibrium),[2],1300 µg/mL
same,Purity,"[3]; 25° C./60% RH, 1 week, listed as p-Toluenesulfonate salt crystal form B-III",99.68 area %
same,Purity,[3]; [6],99.63 area %
same,Purity/initial purity,[3]; [6],99.8%
same,Change of Crystal form,"[3]; 80° C., 24 hours",no
same,Purity,[3]; [7],99.56 area %
same,Purity/initial purity,[3]; [7],99.8%
same,Purity,"[3]; Starting, listed as p-Toluenesulfonate salt crystal form B-III",99.79 area %
"O=C(Nc1ccc(F)cc1)C1(C(=O)Nc2ccc(Oc3ccnc4cc(OCCCN5CCOCC5)c5c(c34)OCCO5)c(F)c2)CC1 [Free state, N-(3-fluoro-4-((5-(3-morpholinopropoxy)-2,3-dihydro-[1,4]dioxano[2,3-f]quinolin-10-yl)oxy)phenyl)-N-(4-fluorophenyl)cyclopropane-1,1-dicarboxamide]",Whether the crystal form changes after DVS test,"[1]; 0% RH-95% RH-0% RH, 25° C.",no
same,Hygroscopicity,[1]; 25° C.,Almost no
same,Moisture adsorption (25° C./80% RH),[1],0.11%
same,T/C (relative tumor proliferation rate),"[4]; 7.5 mg/kg oral once a day, day 3",80.2%
same,T/C (relative tumor proliferation rate),"[4]; 7.5 mg/kg oral once a day, day 7",68.3%
same,T/C (relative tumor proliferation rate),"[4]; 7.5 mg/kg oral once a day, day 10",77.9%
same,T/C (relative tumor proliferation rate),"[4]; 7.5 mg/kg oral once a day, day 14",69.3%
same,T/C (relative tumor proliferation rate),"[4]; 7.5 mg/kg oral once a day, day 18",81.3%
same,T/C (relative tumor proliferation rate),"[4]; 7.5 mg/kg oral once a day, day 21",70.68%
same,T/C (relative tumor proliferation rate),"[4]; 15 mg/kg oral once a day, day 3",88.8%
same,T/C (relative tumor proliferation rate),"[4]; 15 mg/kg oral once a day, day 7",76.9%
same,T/C (relative tumor proliferation rate),"[4]; 15 mg/kg oral once a day, day 10",80.4%
same,T/C (relative tumor proliferation rate),"[4]; 15 mg/kg oral once a day, day 14",66.4%
same,T/C (relative tumor proliferation rate),"[4]; 15 mg/kg oral once a day, day 18",72.2%
same,T/C (relative tumor proliferation rate),"[4]; 15 mg/kg oral once a day, day 21",64.60%
same,S (dynamic solubility),[5],<LOQ
same,solubility at 1 h,[5]; [8],5700 µg/mL
same,solubility at 2 h,[5]; [8],5800 µg/mL
same,solubility at 4 h,[5]; [8],5700 µg/mL
same,solubility at 24 h,[5]; [8],5700 µg/mL
same,solubility at 1 h,"[5]; pH 5, fessif",640 µg/mL
same,solubility at 2 h,"[5]; pH 5, fessif",710 µg/mL
same,solubility at 4 h,"[5]; pH 5, fessif",710 µg/mL
same,solubility at 24 h,"[5]; pH 5, fessif",760 µg/mL
same,solubility at 1 h,"[5]; pH 6.5, fassif",1.8 µg/mL
same,solubility at 2 h,"[5]; pH 6.5, fassif",1.9 µg/mL
same,solubility at 4 h,"[5]; pH 6.5, fassif",2.1 µg/mL
same,solubility at 24 h,"[5]; pH 6.5, fassif",2.5 µg/mL
same,pH of the filtrate,"[5]; FaSSIF, 1 hour",6.4
same,pH of the filtrate,"[5]; FaSSIF, 2 hours",6.4
same,pH of the filtrate,"[5]; FaSSIF, 4 hours",6.4
same,pH of the filtrate,"[5]; FaSSIF, 24 hours",6.4
same,pH of the filtrate,"[5]; FeSSIF, 1 hour",4.9
same,pH of the filtrate,"[5]; FeSSIF, 2 hours",5.0
same,pH of the filtrate,"[5]; FeSSIF, 4 hours",5.0
same,pH of the filtrate,"[5]; FeSSIF, 24 hours",5.0
same,pH of the filtrate,"[5]; H2O, 1 hour",6.7
same,pH of the filtrate,"[5]; H2O, 2 hours",5.5
same,pH of the filtrate,"[5]; H2O, 4 hours",6.7
same,pH of the filtrate,"[5]; H2O, 24 hours",7.8
same,pH of the filtrate,"[5]; SGF, 1 hour",3.6
same,pH of the filtrate,"[5]; SGF, 2 hours",3.7
same,pH of the filtrate,"[5]; SGF, 4 hours",3.7
same,pH of the filtrate,"[5]; SGF, 24 hours",3.8
same,Change of Crystal form,"[3]; 25° C./60% RH, 1 week",no
same,Purity,"[3]; 25° C./60% RH, 1 week",99.36 area %
same,Purity/initial purity,"[3]; 25° C./60% RH, 1 week",99.9%
same,Change of Crystal form,"[3]; 40° C./75% RH, 1 week",no
same,Purity,"[3]; 40° C./75% RH, 1 week",99.39 area %
same,Purity/initial purity,"[3]; 40° C./75% RH, 1 week",99.9%
same,Change of Crystal form,[3]; Starting,no
same,Purity,[3]; Starting,99.44 area %
